In patent publication US8586551B2, “18-membered macrocycles and analogs thereof” (Optimer Pharmaceuticals, Inc., priority 2005, dated 2013):

Experiments:
[1] = system: C. difficile clinical isolates; assay: MIC via agar dilution versus 110 clinical isolates of C. difficile; assay type: cell-based; conditions: 110 clinical isolates
[2] = system: C. difficile; assay: Post-antibiotic effect (PAE) in C. difficile; assay type: cell-based; conditions: at 4× the MIC, clinical isolate LC3
Description: The term “PAE” or “post-antibiotic effect” refers to a well-established pharmacodynamic parameter that reflects the persistent suppression of bacterial growth following antibiotic exposure.
Vancomycin and rifampin were tested additionally versus LC3.
Because of the long duration of this effect, an exact PAE was not calculated.

SMILES	MIC range [1]	PAE [2]
Cc1ncc([N+](=O)[O-])n1CCO [Metronidazole, reference compound]	0.025 to 0.5 µg/mL	
CN[C@H](CC(C)C)C(=O)N[C@H]1C(=O)N[C@@H](CC(N)=O)C(=O)N[C@H]2C(=O)N[C@H]3C(=O)N[C@H](C(=O)N[C@H](C(=O)O)c4cc(O)cc(O)c4-c4cc3ccc4O)[C@H](O)c3ccc(c(Cl)c3)Oc3cc2cc(c3O[C@@H]2O[C@H](CO)[C@@H](O)[C@H](O)[C@H]2O[C@H]2C[C@](C)(N)[C@H](O)[C@H](C)O2)Oc2ccc(cc2Cl)[C@H]1O [Vancomycin, reference compound]	0.06 to 4 µg/mL	less than an hour
